The values that follow come from US8344028B2, “Gamma-amino-butyric acid derivatives as GABAB receptor ligands” (XenoPort, Inc., priority 2009, dated 2013).

The assay deals with GABAB receptor (Homo sapiens, UniProt Q9UBS5). As to the kind of experiment: GABAB receptor agonist or partial agonist activity by binding, electrophysiology, cAMP and/or Ca2+ assay methods (Examples 83-86). The assay is classed as cell-based. The protocol: An assay using rat cerebral cortex membranes was used to determine the affinity of GABAB receptor ligands for the GABAB receptor.
An assay buffer of 50 mM Tris pH 7.4 was prepared with 100 μM of isoguvacine, to block GABAA interactions. The assay buffer with isoguvacine was used for dilution of membranes, compounds, and radiolabel.
Rat cerebral cortex membranes were diluted in assay buffer at 1 mg/mL and aliquoted into a 96-well plate at 900 μL/well. Buffer or test compound were added at 20-times final concentration in the buffer at 50 μL/well. Membranes and test compounds or buffer were incubated for 10 min. at room temperature. Radiolableled [S—(R*,R*)]-[3-[[1-(3,4-dichlorophenyl)ethyl]amino]-2-hydroxypropyl](cyclohexylmethyl) phosphinic acid (CGP54626) was then added at 50 μL/well in the buffer at 1-10 nM concentration in 50 μl. […] The assay mixture was filtered using Brandell filtration apparatus and GFB filters, washed twice with 3 mL of 4° C., 50 mM Tris pH 7.4, buffer without isoguvacine. The filters were then dried at room temperature and the dried filters punched out and placed in individual vials. Three (3) mL of scintillation fluid was added to each vial and the radiolabel counted on the scintillation counter. The inverse amount of radiolabel was indicative of binding of a test compound to the GABAB receptor.
The following procedure was used to determine the level of intracellular cAMP. Recombinant HEK cells expressing the GABAB R1a2 receptor were used in the experiments. cAMP levels were measured using a cAMP XS^+ HitHunter™ Chemiluminescence Assay Kit (90-0075-02, GE Healthcare Biosciences Corp.). Cells were seeded overnight at 5,000 cells per well, in black, clear bottom 96-well plates. The following morning, cells were washed twice with 100 μL PBS per well. Forskolin was weighed out and dissolved in DMSO to a final concentration 100 mM. One-hundred (100) μM forskolin solutions were prepared in PBS with and without test compound at 1-times final concentration. Thirty (30) μL of the test solutions were added to the wells and incubated for 1 h at room temperature. The cAMP concentration was determined according to the protocol described in the cAMP assay kit, maintaining the plate at room temperature and in the dark. […] Each well was read for 6 seconds. The untransformed data was then analyzed.
The following procedure was used to determine the GABAB receptor agonist activity of a compound as reflected by activation of Ca^2+ signaling. HEK TREx cells expressing GABABR1a2 under tetracycline induction control, and Gqi chimeric protein (expressed constitutively), allowing GABABR coupling through the Ca^2+ signaling pathway were used in the experiments.
Cells were seeded in media containing tetracycline overnight at 100,000 cells/well, in black, clear-bottom, 96-well plates. The following morning, cells were washed twice with 100 μL HBSS buffer per well. Fluorescent Ca^2+ indicator dye was prepared using the materials and procedure described in the F362056 Fluo-4 NW Calcium Assay Kit (Invitrogen, Carlsbad, Calif.). Ten (10) mL of kit buffer and 100 μl of kit Probenecid were added to individual kit dye vials, and rolled back and forth several times to dissolve the dye. Cells were then loaded into the dye solution at 50 μL per well. The cells and dye were incubated for 30 min at 37° C., and then incubated for an additional 30 min at room temperature in the dark. Test compounds are dissolved in HBSS buffer at twice final concentration. Duplicate wells were used for each unique condition. Solution containing the test compound was added to the wells using a FLEXStation II (Molecular Devices, Sunnyvale, Calif.). Using the instrument in kinetic mode in which each well was read every 2 sec over a total collection time of 50 sec fluorescence was measured using an excitation wavelength 494 nm and a detection wavelength of 516 nm. A normalized fluorescence value for each well was calculated using the following procedure.

Sequence of GABAB receptor (Q9UBS5 20-961): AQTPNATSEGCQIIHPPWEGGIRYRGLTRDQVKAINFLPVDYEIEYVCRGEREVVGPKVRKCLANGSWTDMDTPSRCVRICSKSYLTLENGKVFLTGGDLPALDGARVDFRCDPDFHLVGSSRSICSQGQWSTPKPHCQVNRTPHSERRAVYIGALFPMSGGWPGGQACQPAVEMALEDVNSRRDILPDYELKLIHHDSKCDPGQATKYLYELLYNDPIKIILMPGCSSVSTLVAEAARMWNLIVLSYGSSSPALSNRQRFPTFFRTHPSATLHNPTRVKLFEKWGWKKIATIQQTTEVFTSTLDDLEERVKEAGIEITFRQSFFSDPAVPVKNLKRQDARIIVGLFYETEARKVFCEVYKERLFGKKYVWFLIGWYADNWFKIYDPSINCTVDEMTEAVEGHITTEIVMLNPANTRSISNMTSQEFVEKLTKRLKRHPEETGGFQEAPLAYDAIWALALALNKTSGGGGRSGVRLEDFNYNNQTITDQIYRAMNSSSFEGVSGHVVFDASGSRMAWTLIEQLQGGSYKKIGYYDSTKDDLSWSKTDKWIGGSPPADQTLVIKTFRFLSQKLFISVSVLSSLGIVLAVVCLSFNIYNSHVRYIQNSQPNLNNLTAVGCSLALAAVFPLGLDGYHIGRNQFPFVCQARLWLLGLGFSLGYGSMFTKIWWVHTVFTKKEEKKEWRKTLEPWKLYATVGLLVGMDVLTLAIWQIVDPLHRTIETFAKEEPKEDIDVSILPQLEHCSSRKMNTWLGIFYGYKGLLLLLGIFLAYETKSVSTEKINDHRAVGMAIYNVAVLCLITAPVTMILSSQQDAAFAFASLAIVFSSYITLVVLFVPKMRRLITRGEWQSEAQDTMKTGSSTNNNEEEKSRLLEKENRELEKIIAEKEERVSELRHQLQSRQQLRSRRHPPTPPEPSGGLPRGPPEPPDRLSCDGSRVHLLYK
Sequence of GABAB receptor (O75899 42-941 partner): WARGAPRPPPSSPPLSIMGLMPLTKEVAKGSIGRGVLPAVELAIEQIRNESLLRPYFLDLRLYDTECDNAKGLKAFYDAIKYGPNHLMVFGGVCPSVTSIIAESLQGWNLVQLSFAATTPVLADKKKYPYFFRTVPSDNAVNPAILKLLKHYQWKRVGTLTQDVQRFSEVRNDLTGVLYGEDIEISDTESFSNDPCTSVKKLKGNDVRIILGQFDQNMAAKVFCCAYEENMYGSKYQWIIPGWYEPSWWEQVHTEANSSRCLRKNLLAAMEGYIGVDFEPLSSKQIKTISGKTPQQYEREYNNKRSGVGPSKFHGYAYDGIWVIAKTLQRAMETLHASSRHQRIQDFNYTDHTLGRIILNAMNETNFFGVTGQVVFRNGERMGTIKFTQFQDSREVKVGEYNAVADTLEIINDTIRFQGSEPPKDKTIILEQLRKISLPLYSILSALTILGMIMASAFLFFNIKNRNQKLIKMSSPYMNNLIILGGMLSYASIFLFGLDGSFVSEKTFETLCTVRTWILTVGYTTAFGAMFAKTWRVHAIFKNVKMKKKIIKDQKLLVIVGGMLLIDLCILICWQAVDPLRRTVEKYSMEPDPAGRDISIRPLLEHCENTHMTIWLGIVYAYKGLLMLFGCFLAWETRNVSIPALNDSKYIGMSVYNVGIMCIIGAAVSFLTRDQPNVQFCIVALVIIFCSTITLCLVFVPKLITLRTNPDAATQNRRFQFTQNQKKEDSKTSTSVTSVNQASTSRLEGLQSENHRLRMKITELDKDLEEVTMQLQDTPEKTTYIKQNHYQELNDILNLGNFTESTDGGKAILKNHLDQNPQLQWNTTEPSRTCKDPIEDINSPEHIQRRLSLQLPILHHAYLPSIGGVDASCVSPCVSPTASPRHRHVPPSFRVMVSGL

With `Cl.NCc1cccc(-c2cccc([C@H](CN)CC(=O)O)c2)c1` [(3R)-4-amino-3-{3-[3-(aminomethyl)phenyl]phenyl}butanoic acid hydrochloride], the “GABAB receptor agonist or partial agonist activity” value is listed as “agonist or partial agonist activity”.

For the compound `Cl.NC[C@H](CC(=O)O)c1ccc(Cl)c(-c2cccc(C(=O)O)n2)c1` [6-{5-[(1R)-2-amino-1-(carboxymethyl)ethyl]-2-chlorophenyl}pyridine-2-carboxylic acid hydrochloride], the “GABAB receptor agonist or partial agonist activity” value was “agonist or partial agonist activity”.

In the case of `Cl.NC[C@H](CC(=O)O)c1ccc(Cl)c(Cc2ccncc2)c1` [(3R)-4-amino-3-[4-chloro-3-(4-pyridylmethyl)phenyl]butanoic acid hydrochloride], the “GABAB receptor agonist or partial agonist activity” value was “agonist or partial agonist activity”.

With `Cc1ccc(-c2cc([C@H](CN)CC(=O)O)ccc2Cl)cc1C#N.Cl` [(3R)-4-amino-3-[4-chloro-3-(3-cyano-4-methylphenyl)phenyl]butanoic acid hydrochloride], the “GABAB receptor agonist or partial agonist activity” value is “agonist or partial agonist activity”.

As to `CN(C(=O)c1ccccc1)c1cc([C@H](CN)CC(=O)O)ccc1Cl.Cl` [(3R)-4-amino-3-[4-chloro-3-(N-methylphenylcarbonylamino)phenyl]butanoic acid hydrochloride], the “GABAB receptor agonist or partial agonist activity” value is recorded as “agonist or partial agonist activity”.

With `Cl.N#Cc1cccc(-c2cc([C@H](CN)CC(=O)O)ccc2Cl)c1F` [(3R)-4-amino-3-[4-chloro-3-(3-cyano-2-fluorophenyl)phenyl]butanoic acid hydrochloride], the “GABAB receptor agonist or partial agonist activity” value is given as “agonist or partial agonist activity”.

Turning to `Cc1ccc(CNc2cc([C@H](CN)CC(=O)O)ccc2Cl)cc1.Cl` [(3R)-4-amino-3-(4-chloro-3-{[(4-methylphenyl)methyl]amino}phenyl)butanoic acid hydrochloride], the “GABAB receptor agonist or partial agonist activity” value is on record as “agonist or partial agonist activity”.

In the case of `CC(C)(C)Oc1ccc(CNc2cc([C@H](CN)CC(=O)O)ccc2Cl)cc1.Cl` [(3R)-4-amino-3-[3-({[4-(tert-butoxy)phenyl]methyl}amino)-4-chlorophenyl]butanoic acid hydrochloride], the “GABAB receptor agonist or partial agonist activity” value was “agonist or partial agonist activity”.

With `NC[C@H](CC(=O)O)c1ccc(Cl)c(Oc2cccc(C(=O)O)c2)c1` [Example 22, 3-{5-[(1R)-2-Amino-1-(carboxymethyl)ethyl]-2-chlorophenoxy}benzoic acid], the “GABAB receptor agonist or partial agonist activity” value is given as “agonist or partial agonist activity”.

Regarding `Cl.NC[C@H](CC(=O)O)c1ccc(Cl)c(-c2ccccc2C(=O)O)c1` [2-{5-[(1R)-2-amino-1-(carboxymethyl)ethyl]-2-chlorophenyl}benzoic acid hydrochloride], the “GABAB receptor agonist or partial agonist activity” value was “agonist or partial agonist activity”.

As for `Cl.N#Cc1ccc(O)c(-c2cc([C@H](CN)CC(=O)O)ccc2Cl)c1` [(3R)-4-amino-3-[4-chloro-3-(3-cyano-6-hydroxyphenyl)phenyl]butanoic acid hydrochloride], the “GABAB receptor agonist or partial agonist activity” value is “agonist or partial agonist activity”.

In the case of `NC[C@H](CC(=O)O)c1ccc(Cl)c(NCc2cccnc2)c1` [(3R)-4-amino-3-{4-chloro-3-[(3-pyridylmethyl)amino]phenyl}butanoic acid], the “GABAB receptor agonist or partial agonist activity” value was “agonist or partial agonist activity”.

For the compound `Cl.N#Cc1cc(-c2cc([C@H](CN)CC(=O)O)ccc2Cl)ccc1Cl` [Example 49, (3R)-4-Amino-3-[4-chloro-3-(4-chloro-3-cyanophenyl)phenyl]butanoic acid hydrochloride], the “GABAB receptor agonist or partial agonist activity” value was “agonist or partial agonist activity”.

For `Cl.N#Cc1cccc(-c2cc([C@H](CN)CC(=O)O)ccc2Cl)n1` [(3R)-4-amino-3-[4-chloro-3-(6-cyano(2-pyridyl))phenyl]butanoic acid hydrochloride], the “GABAB receptor agonist or partial agonist activity” value is “agonist or partial agonist activity”.

Take `N#Cc1cccc(C(=O)Nc2cc([C@H](CN)CC(=O)O)ccc2Cl)c1` [(3R)-4-amino-3-{4-chloro-3-[(3-cyanophenyl)carbonylamino]phenyl}butanoic acid]: the “GABAB receptor agonist or partial agonist activity” value is given as “agonist or partial agonist activity”.

On to `Cl.NC[C@H](CC(=O)O)c1ccc(Cl)c(Oc2ccncc2)c1` [(3R)-4-amino-3-(4-chloro-3-(4-pyridyloxy)phenyl)butanoic acid hydrochloride], for which the “GABAB receptor agonist or partial agonist activity” value is “agonist or partial agonist activity”.

Take `CN(Cc1ccccc1)c1cc([C@H](CN)CC(=O)O)ccc1Cl.Cl` [(3R)-4-amino-3-{4-chloro-3-[methylbenzylamino]phenyl}butanoic acid hydrochloride]: the “GABAB receptor agonist or partial agonist activity” value is “agonist or partial agonist activity”.

With `Cl.NC[C@H](CC(=O)O)c1ccc(Cl)c(-c2ccc(C(=O)O)nc2)c1` [5-{5-[(1R)-2-amino-1-(carboxymethyl)ethyl]-2-chlorophenyl}pyridine-2-carboxylic acid hydrochloride], the “GABAB receptor agonist or partial agonist activity” value is given as “agonist or partial agonist activity”.

Turning to `Cl.NC[C@H](CC(=O)O)c1ccc(Cl)c(-c2cc(Cl)ccn2)c1` [(3R)-4-amino-3-[4-chloro-3-(4-chloro(2-pyridyl))phenyl]butanoic acid hydrochloride], the “GABAB receptor agonist or partial agonist activity” value is “agonist or partial agonist activity”.

As to `Cl.NC[C@H](CC(=O)O)c1ccc(Cl)c(NCc2cccc(C(=O)O)c2)c1` [3-[({5-[(1R)-2-amino-1-(carboxymethyl)ethyl]-2-chlorophenyl}amino)methyl]benzoic acid hydrochloride], the “GABAB receptor agonist or partial agonist activity” value was “agonist or partial agonist activity”.

On to `Cl.NC[C@H](CC(=O)O)c1ccc(Cl)c(-c2ccc(CC(=O)O)cc2)c1` [(3R)-4-amino-3-{3-[4-(carboxymethyl)phenyl]-4-chlorophenyl}butanoic acid hydrochloride], for which the “GABAB receptor agonist or partial agonist activity” value was “agonist or partial agonist activity”.

Take `Cc1cc(-c2cc([C@H](CN)CC(=O)O)ccc2Cl)ccc1Cl.Cl` [(3R)-4-amino-3-[4-chloro-3-(4-chloro-3-methylphenyl)phenyl]butanoic acid hydrochloride]: the “GABAB receptor agonist or partial agonist activity” value is “agonist or partial agonist activity”.

With `Cl.NC[C@H](CC(=O)O)c1ccc(Cl)c(/C=C/c2cccc(C(=O)O)c2)c1` [3-((1E)-2-{5-[(1R)-2-amino-1-(carboxymethyl)ethyl]-2-chlorophenyl}vinyl)benzoic acid hydrochloride], the “GABAB receptor agonist or partial agonist activity” value was “agonist or partial agonist activity”.

`Cl.NC[C@H](CC(=O)O)c1ccc(Cl)c(CCc2ccccn2)c1` [(3R)-4-amino-3-[4-chloro-3-(2-(2-pyridyl)ethyl)phenyl]butanoic acid hydrochloride]: the “GABAB receptor agonist or partial agonist activity” value is listed as “agonist or partial agonist activity”.

For `Cl.NC[C@H](CC(=O)O)c1ccc(Cl)c(NCc2ccncc2Cl)c1` [(3R)-4-amino-3-(4-chloro-3-{[(3-chloro(4-pyridyl))methyl]amino}phenyl)butanoic acid hydrochloride], the “GABAB receptor agonist or partial agonist activity” value is “agonist or partial agonist activity”.

For the compound `Cc1ccc(C(=O)O)cc1-c1cc([C@H](CN)CC(=O)O)ccc1Cl.Cl` [3-{5-[(1R)-2-amino-1-(carboxymethyl)ethyl]-2-chlorophenyl}-4-methylbenzoic acid hydrochloride], the “GABAB receptor agonist or partial agonist activity” value is reported as “agonist or partial agonist activity”.
